US20030068615A1, “Polypeptides that bind HIV gp120 and related nucleic acids, antibodies, compositions, and methods of use” (priority 1999, published 2003)
Several values for one entry are separate records, joined by “and”; a condition that tells them apart may be missing. Identical values can stand only once. Like-named read-outs stand apart in the source and are kept apart here.

Molecular target: HIV-1LAI envelope gp120 (Human immunodeficiency virus type 1 group M subtype B, UniProt P03377)
Type: binding
Details: for Counts per 20′ Average-background: CCR5 18-mer scan, radiolabeled HIV-1LAI gp120; for number of radioactive decays (counts) counted: human CD4 21-mer scan, empty control 2075; for Relative % of Control: mean of two syntheses and binding experiments ± average deviation, wild-type = 100%
[1] = STRL33 18-mer scan, background subtracted, first of two count columns
[2] = STRL33 18-mer scan, background subtracted, second of two count columns
[3] = CXCR4 18-mer scan, background subtracted, empty control 0
[4] = CXCR4 18-mer scan, empty control 412
[5] = Panel C, 15-mers and 18-mers of CD4, empty control 556
[6] = Panel E, 9-mers and 12-mers of CD4, empty control 571
[7] = Panel D, 9-mers and 12-mers of CD4, empty control […]

Q: Which results are given for YTINFYTSMLILTCITVD?
A: radioactive counts recorded in twenty minutes [1]: 351.5 counts; radioactive counts recorded in twenty minutes [2]: 510.5 counts

Q: For GNTMCQLLTGLYFIGFFS [CCR5 segment 97-], which “Counts per 20′ Average-background” value (background subtracted) is on record?
A: 941 counts per 20′

Q: For CQLLTGLYFIGFFSGIFF, which “Counts per 20′ Average-background” value (background subtracted) is on record?
A: 489 counts per 20′

Q: With KLQMGKKLPLHLTLPQALPQY as the sequence, how does the “number of radioactive decays (counts) counted” value (from here on “number of radioactive decays”) read?
A: 1949 counts

Q: How did the “number of radioactive decays” value turn out when “QAERASSSKSWITFDLINKEV [human CD4 241-261]” was run?
A: 2588 counts

Q: How did the “Binding Results For Window Length (counts bound-background), 9” value (STRL33 amino terminus, 9-mer starting at the first residue of the printed sequence, background subtracted) turn out when YGFSSFNDSSQEEHQAFL was run?
A: 345 counts

Q: What about the “Binding Results For Window Length (counts bound-background), 12” value (STRL33 amino terminus, 12-mer starting at the first residue of the printed sequence, background subtracted) of the same sequence?
A: 745 counts

Q: What about the “Binding Results For Window Length (counts bound-background), 15” value (STRL33 amino terminus, 15-mer starting at the first residue of the printed sequence, background subtracted) of the same sequence?
A: 645 counts

Q: What about the “Binding Results For Window Length (counts bound-background), 18” value (STRL33 amino terminus, 18-mer starting at the first residue of the printed sequence, background subtracted) of the same sequence?
A: 1138 counts

Q: “NSIYLVISIFYHKLQSLT [STRL33 segment 49-66]” was tested. Which “radioactive counts recorded in twenty minutes” value (shortened to “radioactive counts recorded”) [1] did it give?
A: 1255.5 counts

Q: And the “radioactive counts recorded” value [2]?
A: 1378.5 counts

Q: KRHRAVRLIFTIMIVYFL [CCR5 segment 229-] was tested. Which “Counts per 20′ Average-background” value (background subtracted) did it give?
A: 36 counts per 20′

Q: Which “Counts per 20′ Average-background” value (background subtracted) does the source give for LVFFQKHIAKRFCKCCSI here?
A: 76 counts per 20′

Q: With NWYFGNFLCKAVHVIYTV as the sequence, how does the “radioactive counts recorded” value [3] read?
A: 96 counts

Q: What about the “radioactive counts recorded” value [4] of the same sequence?
A: 508 counts

Q: How did the “radioactive counts recorded” value [1] turn out when “LPLADLVFVCTLPFWAYA [STRL33 segment 73-90]” was run?
A: 557.5 counts

Q: And the “radioactive counts recorded” value [2]?
A: 960.5 counts

Q: With PLAFTVEKLTGSGEL as the sequence, how does the “COUNTS of radiolabeled gp120 retained” value [5] read?
A: 612 counts

Q: For SIVYKKEGE, which “COUNTS of radiolabeled gp120 retained” value [6] is on record?
A: 566 counts

Q: ICEVEDQKEEVQ was tested. Which “COUNTS of radiolabeled gp120 retained” value [7] did it give?
A: 585 counts

Q: THLLQGASLTLTLES was tested. Which “COUNTS of radiolabeled gp120 retained” value (Panel F, sequential alanine replacements of CD4 polypeptides, duplicate series, empty control 569) did it give?
A: 1933 counts

Q: Which results are given for “LTMIVCYSVIIKTLLHAG [STRL33 segment 205-222]”?
A: radioactive counts recorded in twenty minutes [1]: 2787.5 counts; radioactive counts recorded in twenty minutes [2]: 2654.5 counts

Q: With “ESNIKVLPTWSTPVQPMALIV [human CD4 381-401]” as the sequence, how does the “number of radioactive decays” value read?
A: 1992 counts

Q: Which “Relative % of Control” value (CXCR4 (1-18) alanine variants) does the source give for MEGISIYTADNYTEEMGS here?
A: 70 ± 4%

Q: How did the “COUNTS of radiolabeled gp120 retained” value [7] turn out when GQSLTLTLE was run?
A: 777 counts

Q: NFPLIIKNLKIE was tested. Which “COUNTS of radiolabeled gp120 retained” value [7] did it give?
A: 647 counts

Q: Which results are given for “HKWISITEALAFFHCCLN [CXCR4 segment 281-298]”?
A: radioactive counts recorded in twenty minutes [3]: 163 counts; radioactive counts recorded in twenty minutes [4]: 575 counts

Q: For “MVGLILPGIVILSCYCII [CXCR4 segment 205-222]”, which “radioactive counts recorded” value [3] is on record?
A: 167 counts

Q: And the “radioactive counts recorded” value [4]?
A: 579 counts

Q: LPPLYSLVFIFGFVGNML [CCR5 segment 33-50] was tested. Which “Counts per 20′ Average-background” value (background subtracted) did it give?
A: 705 counts per 20′

Q: “LTDVFLVNLPLADLVFVC [STRL33 segment 65-82]” was tested. Which “radioactive counts recorded” value [1] did it give?
A: 233.5 counts

Q: And the “radioactive counts recorded” value [2]?
A: 336.5 counts

Q: Which “COUNTS of radiolabeled gp120 retained” value [5] does the source give for KKEGEQVEFSFPLAF here?
A: 1921 counts

Q: Which “Relative % of Control” value (CCR5 (1-18) alanine variants) does the source give for “MDYQVSSPAYDINYYTSE [CCR5 (1-18) variant printed 19A]” here?
A: 24 ± 7%

Q: How did the “Relative % of Control” value (CXCR4 (1-18) alanine variants) turn out when MEAISIYTSDNYTEEMGS was run?
A: 101 ± 3%

Q: With YKKEGEQVEFSF as the sequence, how does the “COUNTS of radiolabeled gp120 retained” value [6] read?
A: 548 counts

Q: Which “COUNTS of radiolabeled gp120 retained” value [5] does the source give for AFQKASSIVYKKEGEQVE here?
A: 514 counts

Q: Which “Counts per 20′ Average-background” value (background subtracted) does the source give for NPIIYAFVGEKFRNYLLV [CCR5 segment 293-] here?
A: 162 counts per 20′

Q: How did the “COUNTS of radiolabeled gp120 retained” value (Panel G, alanine replacements and serial truncations (Z) of CD4 polypeptides, empty control 580) turn out when AEQVEFSFPLAFTVE was run?
A: 18042 counts and 18546 counts

Q: Which “radioactive counts recorded” value [3] does the source give for TVILILAFFACWLPYYIG here?
A: 323 counts

Q: What about the “radioactive counts recorded” value [4] of the same sequence?
A: 735 counts

Q: How did the “Counts per 20′ Average-background” value (background subtracted) turn out when LKARTVTFGVWDSVITWV [CCR5 segment 137-] was run?
A: 74 counts per 20′

Q: Which “number of radioactive decays” value does the source give for “GKLHQEVNLVVMRATQLQKNL [human CD4 306-326]” here?
A: 1776 counts

Q: With “ADYQVSSPIYDINYYTSE [CCR5 (1-18) variant M1A]” as the sequence, how does the “Relative % of Control” value (CCR5 (1-18) alanine variants) read?
A: 167 ± 4%

Q: LIIKNLKIEDSDTYICEV was tested. Which “COUNTS of radiolabeled gp120 retained” value (Panel B, 15-mers and 18-mers of CD4, empty control 575) did it give?
A: 634 counts

Q: Which results are given for IVVVKATKAYNQQAKRMT?
A: radioactive counts recorded in twenty minutes [1]: 166.5 counts; radioactive counts recorded in twenty minutes [2]: 43.5 counts

Q: FFIILLTIDRYLAVVHAV [CCR5 segment 117-] was tested. Which “Counts per 20′ Average-background” value (background subtracted) did it give?
A: 77 counts per 20′

Q: How did the “COUNTS of radiolabeled gp120 retained” value [7] turn out when KIEDSDTYICEV was run?
A: 601 counts

Q: For SIVYKKEGEQVE, which “COUNTS of radiolabeled gp120 retained” value [6] is on record?
A: 543 counts

Q: Which “COUNTS of radiolabeled gp120 retained” value (Panel A, 21-mers of CD4, empty control 515 and 617) does the source give for YKKEGEQVEFSFPLAFTVEKL here?
A: 735 counts

Q: With QKKVEFKIDIVVLAFQKA as the sequence, how does the “COUNTS of radiolabeled gp120 retained” value [5] read?
A: 1013 counts

Q: For “KLTGSGELWWQAERASSSKSW [human CD4 231-251]”, which “number of radioactive decays” value is on record?
A: 1878 counts

Q: KKVEFKIDIVVLAFQ was tested. Which “COUNTS of radiolabeled gp120 retained” value [5] did it give?
A: 951 counts
